Patent US6706740B2, “Fungicidal heterocyclic aromatic amides and their compositions, methods of use and preparation” (Dow AgroSciences LLC, priority 1999, dated 2004)
Like-named read-outs stand apart in the source and are kept apart here.

Tests used:
[1] = tested on: Magnaporthe grisea (Pyricularia oryzae—PYRIOR); assay: microbe, parasite or virus in culture; assay type: cell-based; settings: Pyricularia oryzae, read-out: PYRIOR in vitro Growth Inhibition
Ustilago maydis (USTIMA) = assay: microbe, parasite or virus in culture; assay type: cell-based; settings: Mycosarcoma maydis, read-out: USTIMA in vitro Growth Inhibition
[2] = tested on: Puccinia recondita—PUCCRT; assay: Brown Rust of Wheat, in vivo whole plant, 24 Hour Protectant
[3] = tested on: Phytophthora infestans—PHYTIN; assay: whole plant or invertebrate; assay type: in vivo; settings: Phytophthora, in Solanum lycopersicum, 24 h, read-out: PHYTIN in vivo 1 Day Protectant
[4] = tested on: Mycosphaerella graminicola (Septoria tritici—SEPTTR); assay: In vitro fungal growth inhibition, Mycosphaerella graminicola (SEPTTR); assay type: cell-based; settings: Zymoseptoria tritici, read-out: SEPTTR in vitro Growth Inhibition
Erysiphe graminis—ERYSGT = assay: Powdery Mildew of Wheat, in vivo whole plant, 24 Hour Protectant; settings: Erysiphe, read-out: ERYSGT in vivo 1 Day Protectant
[5] = tested on: Phytophthora infestans (PHYTIN); assay: microbe, parasite or virus in culture; assay type: cell-based; settings: Phytophthora infestans, read-out: PHYTIN in vitro Growth Inhibition
[6] = tested on: Leptosphaeria nodorum—LEPTNO; assay: Glume Blotch of Wheat, in vivo whole plant, 24 Hour Protectant
[7] = tested on: Stagonospora nodorum (Leptosphaeria nodorum—LEPTNO); assay: In vitro fungal growth inhibition, Stagonospora nodorum (LEPTNO); assay type: cell-based; settings: Leptosphaeria, read-out: LEPTNO in vitro Growth Inhibition
Septoria tritici—SEPTTR = assay: Leaf Blotch of Wheat, in vivo whole plant, 24 Hour Protectant
[8] = tested on: Rhizoctonia solani (RHIZSO); assay: microbe, parasite or virus in culture; assay type: cell-based; settings: Rhizoctonia solani, read-out: RHIZSO in vitro Growth Inhibition
[9] = Puccinia; 100 ppm spray, 24 hour protectant, wheat; control of fungal infection vs untreated plants; read-out: PUCCRT in vivo 1 Day Protectant
[10] = 100 ppm spray, 24 hour protectant, wheat, control of fungal infection vs untreated plants
[11] = Leptosphaeria; 100 ppm spray, 24 hour protectant, wheat; control of fungal infection vs untreated plants; read-out: LEPTNO in vivo 1 Day Protectant
[12] = Zymoseptoria tritici, 24 h, 100 ppm spray, 24 hour protectant, wheat; control of fungal infection vs untreated plants; read-out: SEPTTR in vivo 1 Day Protectant
[13] = wheat plants sprayed at 100 ppm, inoculated after 24 hours; control of fungal infection vs untreated plants
[14] = Puccinia; 100 ppm spray, wheat, 24 hour protectant; control of fungal infection vs untreated plants; read-out: PUCCRT in vivo 1 Day Protectant
[15] = 100 ppm spray, wheat, 24 hour protectant, control of fungal infection vs untreated plants
[16] = Leptosphaeria; 100 ppm spray, wheat, 24 hour protectant; control of fungal infection vs untreated plants; read-out: LEPTNO in vivo 1 Day Protectant
[17] = Zymoseptoria tritici, 24 h, 100 ppm spray, wheat, 24 hour protectant; control of fungal infection vs untreated plants; read-out: SEPTTR in vivo 1 Day Protectant

Structure (SMILES)	inhibition at 25 ppm [1]	inhibition at 25 ppm (Ustilago maydis (USTIMA))	pest or weed control at 100 ppm [2, 9]	pest or weed control at 100 ppm [3]	inhibition at 25 ppm ([4]; 25 ppm in growth medium)	pest or weed control at 100 ppm (Erysiphe graminis—ERYSGT; [10])	inhibition at 25 ppm [5]	pest or weed control at 100 ppm [6, 11]	inhibition at 25 ppm ([7]; 25 ppm in growth medium)	pest or weed control at 100 ppm (Septoria tritici—SEPTTR; [12])	inhibition at 25 ppm [8]	further results
COc1ccnc(C(=O)NCC2C(C=C(C)C)C2(C)C)c1O (stereo not shown) [Compound 241]	< 80%	< 80%	25 to 74%	< 25%	< 80%	< 25%	> 80%	25 to 74%	< 80%	25 to 74%	> 80%	–
COc1ccnc(C(=O)N[C@H]2COC(=O)[C@H](Cc3ccccc3)[C@@H](OC(=O)C(C)C)[C@H](C)OC2=O)c1OC(=O)CCc1ccccc1 [Compound 650]	> 80%	< 80%	–	< 25%	–	–	< 80%	–	–	–	< 80%	PUCCRT in vivo 1 Day Protectant ([2]; in vivo): + +; inhibition at 25 ppm [4]: < 80%; pest or weed control at 100 ppm (Erysiphe graminis—ERYSGT; 24 h): < 25%; LEPTNO in vivo 1 Day Protectant ([6]; in vivo): + +; inhibition at 25 ppm [7]: > 80%; SEPTTR in vivo 1 Day Protectant (Septoria tritici—SEPTTR; in vivo): + +
CC(=O)Oc1cccnc1C(=O)N[C@H]1COC(=O)[C@H](Cc2ccccc2)[C@@H](OC(=O)C(C)C)[C@H](C)OC1=O [Compound 568]	< 80%	< 80%	–	< 25%	–	–	< 80%	–	–	–	< 80%	PUCCRT in vivo 1 Day Protectant [2, 13]: + +; inhibition at 25 ppm ([4]; 25 ppm in the growth medium): > 80%; pest or weed control at 100 ppm (Erysiphe graminis—ERYSGT; wheat plants sprayed at 100 ppm, inoculated after 24 hours, control of fungal infection vs untreated plants): < 25%; LEPTNO in vivo 1 Day Protectant [6, 13]: + +; inhibition at 25 ppm ([7]; 25 ppm in the growth medium): > 80%; SEPTTR in vivo 1 Day Protectant (Septoria tritici—SEPTTR; [13]): + +
COc1ccnc(C(=O)NC2C[C@H](C)O[C@@](C)(Cc3ccccc3)C2)c1O (stereo partly shown) [Compound 312]	< 80%	< 80%	< 25%	< 25%	< 80%	25 to 74%	< 80%	25 to 74%	< 80%	25 to 74%	< 80%	–
COc1ccnc(C(=O)NC2CC(C)(C)CC(C)(C3CC3)C2)c1O (stereo not shown) [Compound 252]	> 80%	< 80%	25 to 74%	25 to 74%	> 80%	< 25%	> 80%	25 to 74%	> 80%	25 to 74%	> 80%	–
COc1ccnc(C(=O)NC2CC3CCC2C3)c1O (stereo not shown) [Compound 287]	< 80%	< 80%	25 to 74%	< 25%	< 80%	< 25%	< 80%	25 to 74%	< 80%	25 to 74%	> 80%	–
COc1ccc(Oc2ccccc2NC(=O)c2nccc(OC)c2O)cc1 [Compound 429]	< 80%	< 80%	–	< 25%	> 80%	–	< 80%	–	< 80%	–	< 80%	pest or weed control at 100 ppm [2, 14]: < 25%; pest or weed control at 100 ppm (Erysiphe graminis—ERYSGT; [15]): < 25%; pest or weed control at 100 ppm [6, 16]: < 25%; pest or weed control at 100 ppm (Septoria tritici—SEPTTR; [17]): < 25%
COc1ccc(Oc2cccc(NC(=O)c3nccc(OC)c3O)c2)cc1 [Compound 432]	< 80%	< 80%	–	< 25%	> 80%	–	< 80%	–	> 80%	–	< 80%	pest or weed control at 100 ppm [2, 14]: 25 to 74%; pest or weed control at 100 ppm (Erysiphe graminis—ERYSGT; [15]): < 25%; pest or weed control at 100 ppm [6, 16]: 25 to 74%; pest or weed control at 100 ppm (Septoria tritici—SEPTTR; [17]): < 25%
